{"source": "patent US20090011424A1", "about": "“Cancer-suppressing agents” (Tokyo Medical and Dental University, priority 2005, published 2009)", "system": "SMS-KAN cell", "test": "messenger RNA expression analysis, AceGene Human oligo chip 30 K, NR1I2-expressing clone B1 vs control clone", "format": "cell-based", "settings": "2nd: Cy5-B1/Cy3-control", "source_text": "The NR1I2 gene has been known as a transcriptional factor. Thus, it is possible to know what type of gene expression is controlled by obtaining messenger RNAs from cells causing NR1I2 protein expression and cells not causing such expression, and comparing the expression levels thereof with each other. As described above, the NR1I2 gene protein may have an effect of inhibiting cancer. […] Therefore, pCMV-Tag3 vector not containing a foreign gene as a control was introduced into SMS-KAN cell, and pCMV-Tag3-VP-NR1I2 containing the NR1I2 gene as a test sample was introduced into SMS-KAN cell. As a result, a control cell clone and a cell clone B1 permanently causing NR1I2 protein expression were obtained. Thereafter, analysis of messenger RNA expression was carried out using these two types of cells and an AceGene Human oligo chip 30 K (DNA Chip Research Inc.), with which the expression levels of 30,000 human genes can be observed (Inoue. J., et al. Am J. Pathol. 165. 71. 2004). A complementary strand DNA (complimentary DNA) was prepared, into which aminoallyl-dUTP (Ambion Inc.) was incorporated using an Oligo (dT) 12-18 primer. Then, the aminoallyl group was labeled with reactive Cy3 (cyanin 3) and Cy5 (cyanin 5) (Amersham Biosciences) via a coupling reaction. Hybridization was performed twice (1st: Cy3-B1/Cy5-control; 2nd: Cy5-B1/Cy3-control). Signals were measured using a GenePix 4000B (Axon Instruments) so as to be analyzed by GenePix Pro 4.1 software (Axon Instruments). Tables 3 and 4 are lists of genes, where in the cases of SMS-KAN cells into which the NR1I2 gene had been introduced in the two experiments, the expression levels were 1.5-fold or greater than the expression level in the case of a control cell clone.", "data": [{"substance": "NR1I2 gene: human-derived gene, nuclear receptor subfamily 1, group I, member 2 (pregnane X receptor, PXR), nucleotide sequence SEQ ID NO: 1", "values": [{"measurement": "ADAMTS2 expression level Ratio 2nd", "result": 1.60}, {"measurement": "ADNP expression level Ratio 2nd", "result": 1.63}, {"measurement": "AP3S2 expression level Ratio 2nd", "result": 2.55}, {"measurement": "APEG1 expression level Ratio 2nd", "result": 1.91}, {"measurement": "APOA1 expression level Ratio 2nd", "result": 2.00}, {"measurement": "APP expression level Ratio 2nd", "result": 2.05}, {"measurement": "ARHC expression level Ratio 2nd", "result": 1.52}, {"measurement": "ARL2 expression level Ratio 2nd", "result": 1.53}, {"measurement": "ASCL2 expression level Ratio 2nd", "result": 2.46}, {"measurement": "ASH1 expression level Ratio 2nd", "result": 1.83}, {"measurement": "B4GALT5 expression level Ratio 2nd", "result": 1.56}, {"measurement": "BARD1 expression level Ratio 2nd", "result": 1.93}, {"measurement": "BCAT2 expression level Ratio 2nd", "result": 1.63}, {"measurement": "BLP2 expression level Ratio 2nd", "result": 1.53}, {"measurement": "BMP15 expression level Ratio 2nd", "result": 1.52}, {"measurement": "C6orf25 expression level Ratio 2nd", "result": 1.76}, {"measurement": "CCNA1 expression level Ratio 2nd", "result": 1.92}, {"measurement": "CDC7L1 expression level Ratio 2nd", "result": 1.86}, {"measurement": "CISH expression level Ratio 2nd", "result": 2.17}, {"measurement": "CORO2A expression level Ratio 2nd", "result": 1.73}, {"measurement": "Cab45 expression level Ratio 2nd", "result": 1.86}, {"measurement": "DKFZp434G05 expression level Ratio 2nd", "result": 1.58}, {"measurement": "DKKL1 expression level Ratio 2nd", "result": 1.56}, {"measurement": "DNA12 expression level Ratio 2nd", "result": 1.54}, {"measurement": "EPHX1 expression level Ratio 2nd", "result": 2.25}, {"measurement": "ERCC1 expression level Ratio 2nd", "result": 1.84}, {"measurement": "ETR101 expression level Ratio 2nd", "result": 1.67}, {"measurement": "EXT1 expression level Ratio 2nd", "result": 1.89}, {"measurement": "FLJ10737 expression level Ratio 2nd", "result": 1.54}, {"measurement": "FLJ12389 expression level Ratio 2nd", "result": 2.19}, {"measurement": "FLJ13197 expression level Ratio 2nd", "result": 2.99}, {"measurement": "FLJ13479 expression level Ratio 2nd", "result": 1.94}, {"measurement": "FLJ20288 expression level Ratio 2nd", "result": 1.83}, {"measurement": "FLJ20555 expression level Ratio 2nd", "result": 1.53}, {"measurement": "FLJ23462 expression level Ratio 2nd", "result": 1.67}, {"measurement": "FOFR3 expression level Ratio 2nd", "result": 1.59}, {"measurement": "GLI2 expression level Ratio 2nd", "result": 2.72}, {"measurement": "GNE expression level Ratio 2nd", "result": 1.90}, {"measurement": "GSTT2 expression level Ratio 2nd", "result": 3.28}, {"measurement": "GUCY1A3 expression level Ratio 2nd", "result": 1.63}, {"measurement": "HHEX expression level Ratio 2nd", "result": 1.57}, {"measurement": "HNT expression level Ratio 2nd", "result": 1.57}, {"measurement": "HPCL2 expression level Ratio 2nd", "result": 1.74}, {"measurement": "ICAM5 expression level Ratio 2nd", "result": 1.54}, {"measurement": "IFIT4 expression level Ratio 2nd", "result": 1.54}, {"measurement": "INSL6 expression level Ratio 2nd", "result": 1.68}, {"measurement": "IRC039700 expression level Ratio 2nd", "result": 2.15}, {"measurement": "KCNJ15 expression level Ratio 2nd", "result": 1.91}, {"measurement": "KIAA0161 expression level Ratio 2nd", "result": 1.56}, {"measurement": "KIAA0212 expression level Ratio 2nd", "result": 2.04}, {"measurement": "LBP-9 expression level Ratio 2nd", "result": 1.95}, {"measurement": "LDB1 expression level Ratio 2nd", "result": 1.60}, {"measurement": "LICAM expression level Ratio 2nd", "result": 1.89}, {"measurement": "LILRB5 expression level Ratio 2nd", "result": 1.76}, {"measurement": "LOC51024 expression level Ratio 2nd", "result": 1.69}, {"measurement": "LRP8 expression level Ratio 2nd", "result": 1.54}, {"measurement": "LZLP expression level Ratio 2nd", "result": 1.61}, {"measurement": "MAFG expression level Ratio 2nd", "result": 2.55}, {"measurement": "MGC2306 expression level Ratio 2nd", "result": 1.58}, {"measurement": "MGC2941 expression level Ratio 2nd", "result": 1.93}, {"measurement": "MPP6 expression level Ratio 2nd", "result": 1.70}, {"measurement": "MT-ACT48 expression level Ratio 2nd", "result": 1.61}, {"measurement": "OCM expression level Ratio 2nd", "result": 1.72}, {"measurement": "OMP expression level Ratio 2nd", "result": 1.58}, {"measurement": "OPA3 expression level Ratio 2nd", "result": 2.49}, {"measurement": "ORC5L expression level Ratio 2nd", "result": 1.69}, {"measurement": "ORM1 expression level Ratio 2nd", "result": 1.60}, {"measurement": "PCDHA4 expression level Ratio 2nd", "result": 1.97}, {"measurement": "PCDHB10 expression level Ratio 2nd", "result": 1.66}, {"measurement": "PDCD8 expression level Ratio 2nd", "result": 2.03}, {"measurement": "PFKFB4 expression level Ratio 2nd", "result": 4.97}, {"measurement": "PGAM1 expression level Ratio 2nd", "result": 2.16}, {"measurement": "PITPN expression level Ratio 2nd", "result": 1.75}, {"measurement": "PLA2G2A expression level Ratio 2nd", "result": 3.05}, {"measurement": "PLCE1 expression level Ratio 2nd", "result": 2.94}, {"measurement": "PLEKHA1 expression level Ratio 2nd", "result": 1.56}, {"measurement": "PRO2121 expression level Ratio 2nd", "result": 1.91}, {"measurement": "PRO2831 expression level Ratio 2nd", "result": 1.53}, {"measurement": "RDH5 expression level Ratio 2nd", "result": 1.64}, {"measurement": "RP1 expression level Ratio 2nd", "result": 1.56}, {"measurement": "RPL39L expression level Ratio 2nd", "result": 2.34}, {"measurement": "RPS16 expression level Ratio 2nd", "result": 1.59}, {"measurement": "SC65 expression level Ratio 2nd", "result": 1.58}, {"measurement": "SCD expression level Ratio 2nd", "result": 1.77}, {"measurement": "SCN2B expression level Ratio 2nd", "result": 1.54}, {"measurement": "SLC22A11 expression level Ratio 2nd", "result": 1.68}, {"measurement": "SNAP91 expression level Ratio 2nd", "result": 3.43}, {"measurement": "STK11 expression level Ratio 2nd", "result": 1.64}, {"measurement": "SURF1 expression level Ratio 2nd", "result": 1.95}, {"measurement": "TCEA1 expression level Ratio 2nd", "result": 1.56}, {"measurement": "TGM2 expression level Ratio 2nd", "result": 1.62}, {"measurement": "TIMM10 expression level Ratio 2nd", "result": 1.89}, {"measurement": "TLAL1 expression level Ratio 2nd", "result": 2.37}, {"measurement": "TMPRSS4 expression level Ratio 2nd", "result": 1.57}, {"measurement": "TOP3B expression level Ratio 2nd", "result": 1.61}, {"measurement": "TPARL expression level Ratio 2nd", "result": 1.58}, {"measurement": "TRPV4 expression level Ratio 2nd", "result": 1.80}, {"measurement": "TSPAN-1 expression level Ratio 2nd", "result": 1.69}, {"measurement": "UXT expression level Ratio 2nd", "result": 2.94}, {"measurement": "WHSC2 expression level Ratio 2nd", "result": 1.67}]}]}
